Values belong to the molecule of their own block, whether it stands above or below them.
Key:
MU1 = target: T1, MU1 (unidentified, UniProt Z9NE32H8P7); test: isothermal titration calorimetry; format: binding, Homo sapiens; conditions: 20 mM HEPES, 150 mM NaCl, pH 7.5; sequential two-sites model, stronger site
T1 construct: metagenomic phage display insert in pET-28a(+) (NdeI/XhoI; forward primer in the T7 vector upstream of the insert), N-terminal His6 kept, E. coli BL21(DE3); monomer, ~39 kDa by SEC; GenBank entry within MN313892-MN313895, ON711254-ON711279, not assigned in text
T1 sequence (Z9NE32H8P7 1-238): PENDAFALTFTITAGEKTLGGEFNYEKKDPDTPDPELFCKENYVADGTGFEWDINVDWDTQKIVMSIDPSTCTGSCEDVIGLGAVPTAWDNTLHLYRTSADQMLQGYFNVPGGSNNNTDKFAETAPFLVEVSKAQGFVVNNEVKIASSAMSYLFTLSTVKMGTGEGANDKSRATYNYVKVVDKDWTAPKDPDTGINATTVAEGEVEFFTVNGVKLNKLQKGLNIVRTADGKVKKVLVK

MN3 = target: T2, MN3 (unidentified, UniProt Z9ZPU1GRL3); test: isothermal titration calorimetry; format: binding, Homo sapiens; conditions: 20 mM HEPES, 150 mM NaCl, pH 7.5; sequential two-sites model, stronger site
T2 construct: metagenomic phage display insert in pET-28a(+) (EcoRI/HindIII), N- and C-terminal His6 kept, E. coli BL21(DE3); monomer (~33 kDa) and dimer (~77 kDa); GenBank entry within MN313892-MN313895, ON711254-ON711279, not assigned in text
T2 sequence (Z9ZPU1GRL3 1-298): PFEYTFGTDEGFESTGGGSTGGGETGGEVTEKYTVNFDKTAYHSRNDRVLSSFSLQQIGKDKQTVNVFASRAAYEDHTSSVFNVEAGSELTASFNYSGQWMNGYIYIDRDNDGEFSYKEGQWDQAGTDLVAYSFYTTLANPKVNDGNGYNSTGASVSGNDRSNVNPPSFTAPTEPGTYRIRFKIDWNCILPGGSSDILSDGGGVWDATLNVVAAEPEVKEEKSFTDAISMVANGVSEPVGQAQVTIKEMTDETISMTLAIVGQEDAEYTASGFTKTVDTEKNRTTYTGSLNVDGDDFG

Fetuin = target: T3, Fetuin (UniProt P12763 19-359, sialylated); test: ITC; VP-ITC; protein in the sample cell, ligand titrated (20 or 35 injections at intervals of 180 s); buffer mostly 20 mM HEPES, 150 mM NaCl, pH 7.5; single run; conditions: both partners purified
T3 construct: fetuin, a glycoprotein used as a glycan ligand in calorimetry; also called sialylated fetuin
T3 sequence (looked up): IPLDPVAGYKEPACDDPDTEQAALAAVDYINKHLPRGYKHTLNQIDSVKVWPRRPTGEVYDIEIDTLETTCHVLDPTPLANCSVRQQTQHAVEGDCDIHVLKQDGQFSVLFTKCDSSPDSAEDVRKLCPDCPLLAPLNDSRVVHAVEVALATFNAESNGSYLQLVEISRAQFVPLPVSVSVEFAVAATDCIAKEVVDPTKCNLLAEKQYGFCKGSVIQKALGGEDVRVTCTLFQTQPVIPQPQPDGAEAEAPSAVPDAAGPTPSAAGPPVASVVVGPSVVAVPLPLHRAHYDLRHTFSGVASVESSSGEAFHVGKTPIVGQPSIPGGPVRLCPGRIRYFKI

[1] = target: MN3 (human fecal metagenome (organism not identified)); test: SEC; HiPrep 26/60 HR Sephacryl S-200, 150 mM NaCl, 20 mM Tris pH 7.5, mostly 1.0 ml/min

Kd (MU1): 20.8 µM
Kd (MN3): 36.8 µM
Molecule: C#CCN(C(C)=O)[C@@H]1O[C@H](CO)[C@@H](O[C@@H]2O[C@H](CO)[C@H](O)[C@H](O[C@@H]3O[C@H](CO)[C@@H](O[C@@H]4O[C@H](CO)[C@H](O)[C@H](O)[C@H]4O[C@@H]4O[C@@H](C)[C@@H](O)[C@@H](O)[C@@H]4O)[C@H](O)[C@H]3NC(C)=O)[C@H]2O)[C@H](O)[C@H]1O [H antigen type-2 pentaose]

Kd (Fetuin): 239 µM
B1: MU3 (domain or fragment)
chain: QTPKDVTVVEKYQADGTGFSHTINVDWDKQKIVASIDFSNGGDDKDILAMTTGDSFTAFQTSTYRTMHWYCNQTAKQISGFFAKSGAGNNNTGRIDVADCLAKFEISKAEGLKVNGVVKMTPDALEELLTGDPIIIGSGESPKFSNAFYNYIKVVSLDWKETTEPEVTVKDEKTFNEALYMQDQKVADATVVVKG

stoichiometry N [1]: 2
B2: MN3 (domain or fragment)
chain: PFEYTFGTDEGFESTGGGSTGGGETGGEVTEKYTVNFDKTAYHSRNDRVLSSFSLQQIGKDKQTVNVFASRAAYEDHTSSVFNVEAGSELTASFNYSGQWMNGYIYIDRDNDGEFSYKEGQWDQAGTDLVAYSFYTTLANPKVNDGNGYNSTGASVSGNDRSNVNPPSFTAPTEPGTYRIRFKIDWNCILPGGSSDILSDGGGVWDATLNVVAAEPEVKEEKSFTDAISMVANGVSEPVGQAQVTIKEMTDETISMTLAIVGQEDAEYTASGFTKTVDTEKNRTTYTGSLNVDGDDFG
modifications: not checked
